Measurements taken from patent US20100248390A1, “COMPOSITIONS AND METHODS FOR IDENTIFYING LIGANDS OF ODORANT RECEPTORS” (DUKE UNIVERSITY, priority 2009, published 2010).

How the values were obtained:
[1] = test system: mouse odorant receptors (ORs); experiment: CRE-luciferase assay of odorant receptor activation (Dual-Glo, Hana3A cells, RTP1S), dose-response EC50; assay type: cell-based; conditions: 0 = no response; for log EC50, MOR138-1: receptor MOR138-1; for log EC50, MOR139-1: receptor MOR139-1; for log EC50, MOR189-1: receptor MOR189-1; for log EC50, MOR272-1: receptor MOR272-1; for log EC50, MOR273-1: receptor MOR273-1
MOR2-1 = experiment: CRE-luciferase assay of odorant receptor activation, enantiomeric pairs; assay type: cell-based, mouse; conditions: CRE-luciferase in Hana3A cells; at some doses; compared with the other enantiomer; FIG. 6
Source text: OR open reading frames were amplified from genomic DNA using proofreading KOD DNA polymerase (Toyobo/Novagen) and subcloned into pCI expression vectors (Promega) containing the first 20 residues of human rhodopsin (Rho tag). The sequences of the cloned receptors were verified by sequencing (3100 Genetic Analyzer, ABI Biosystems). Immunocytochemistry and FACS analysis. […] For FACS analysis, phycoerythrin (PE)-conjugated anti-mouse IgG (Jackson Immunologicals) was used. In order to monitor the transfection efficiency, Green Fluorescent Protein (GFP) was co-transfected with the OR. The intensity of receptor cell surface expression was calculated as the ratio of PE and GFP expression. 7-aminoactinomycin D (Calbiochem) was added before flow cytometry to mark dead cells which were excluded from the analysis. The gate and mean of PE positive cells was normalized by GFP values. Luciferase assay. […] All luminescence values were divided by the Renilla Luciferase activity to control for transfection efficiency in a given well. […] Each comparison was performed in triplicate; statistical significance was assessed by t-test (uncorrected for multiple comparisons). […] For all remaining odorant pairs the Pearson correlation between EC50 vectors and the Euclidean distance between descriptor vectors was calculated. The Pearson correlation between these two sets of distances was then measured. […]

MOR271-1 = experiment: as above; assay type: cell-based, mouse; conditions: CRE-luciferase in Hana3A cells; (+) versus (−) enantiomer; FIG. 6
Source text: (§1) Cloning mouse and human ORs. 219 mouse and 245 human odorant receptors were cloned with sequence information from The Olfactory Receptor Database (Healy et al., Chemical Senses 22, 321-6 (1997); herein incorporated by reference in its entirety). […] OR open reading frames were amplified from genomic DNA using proofreading KOD DNA polymerase (Toyobo/Novagen) and subcloned into pCI expression vectors (Promega) containing the first 20 residues of human rhodopsin (Rho tag). The sequences of the cloned receptors were verified by sequencing (3100 Genetic Analyzer, ABI Biosystems). Immunocytochemistry and FACS analysis. […] The intensity of receptor cell surface expression was calculated as the ratio of PE and GFP expression. […] Luminescence was measured using a Wallac Victor 1420 plate reader (Perkin-Elmer). All luminescence values were divided by the Renilla Luciferase activity to control for transfection efficiency in a given well. Normalized luciferase activity was calculated using the formula (LN−Lmin)/(Lmax−Lmin), where LN is the luminescence of firefly luciferase in response to the odorant, Lmin is the minimum luciferase value on a plate or set of plates, and Lmax is the maximum luciferase value on a plate or set of plates. The data was analyzed using Microsoft Excel and GraphPad Prism 4. […]

MOR107-1 = experiment: as above; assay type: cell-based, mouse; conditions: CRE-luciferase in Hana3A cells; (+) versus (−) enantiomer; FIG. 6
Source text: as §1

[2] = biological target: T1, mouse odorant receptors (ORs) (Mus musculus, UniProt P23275); experiment: CRE-luciferase assay of odorant receptor activation (Dual-Glo, Hana3A cells, RTP1S), dose-response EC50; assay type: cell-based; conditions: receptor MOR256-17; read-out: log EC50 of odorant at MOR256-17 (0 = no response) (converted)
T1 construct: OR open reading frames were amplified from genomic DNA; expressed in transfected cells; host or cells: Hana3A cells, co-transfected with RTP1S, CRE-luciferase and pRL-SV40
T1 sequence (P23275 1-312): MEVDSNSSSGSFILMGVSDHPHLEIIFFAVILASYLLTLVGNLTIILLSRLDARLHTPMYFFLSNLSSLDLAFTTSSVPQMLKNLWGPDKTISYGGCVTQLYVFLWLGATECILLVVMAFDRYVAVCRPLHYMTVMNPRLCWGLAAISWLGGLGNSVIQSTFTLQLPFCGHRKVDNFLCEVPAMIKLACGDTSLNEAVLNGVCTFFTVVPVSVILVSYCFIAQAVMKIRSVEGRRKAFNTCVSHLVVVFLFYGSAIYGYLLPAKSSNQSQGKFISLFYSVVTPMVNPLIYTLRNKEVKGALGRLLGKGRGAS

[3] = biological target: T2, human odorant receptors (ORs) (Homo sapiens, UniProt Q8NHC4); experiment: as above; assay type: cell-based; conditions: receptor OR10J5; read-out: log EC50 of odorant at OR10J5 (0 = no response) (converted)
T2 construct: OR open reading frames were amplified from genomic DNA; expressed in transfected cells; host or cells: Hana3A cells, co-transfected with RTP1S, CRE-luciferase and pRL-SV40
T2 sequence (Q8NHC4 1-309): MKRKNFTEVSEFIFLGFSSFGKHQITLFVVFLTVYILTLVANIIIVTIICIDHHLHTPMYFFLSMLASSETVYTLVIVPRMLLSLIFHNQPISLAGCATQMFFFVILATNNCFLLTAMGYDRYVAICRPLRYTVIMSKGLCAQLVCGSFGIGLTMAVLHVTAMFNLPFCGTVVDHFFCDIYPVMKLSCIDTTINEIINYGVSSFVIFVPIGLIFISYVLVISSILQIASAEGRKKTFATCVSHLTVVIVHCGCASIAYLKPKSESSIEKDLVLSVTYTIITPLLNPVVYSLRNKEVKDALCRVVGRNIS
Procedure, shortened: (§2)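 Hana3A cells were co-transfected with Rho-tagged OR, RTP1S, CRE-luciferase and pRL-SV40, then exposed to odorant in CD293 medium for 4 hrs at 37° C. Firefly luminescence was divided by Renilla and normalized as (LN−Lmin)/(Lmax−Lmin) per plate set. Each dose was tested at least three times, and EC50 came from sigmoidal fits.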

[4] = biological target: T3, human odorant receptors (ORs) (Homo sapiens, UniProt Q9H255); experiment: as above; assay type: cell-based; conditions: receptor OR51E2; read-out: log EC50 of odorant at OR51E2 (0 = no response) (converted)
T3 construct: OR open reading frames were amplified from genomic DNA; expressed in transfected cells; host or cells: Hana3A cells, co-transfected with RTP1S, CRE-luciferase and pRL-SV40
T3 sequence (Q9H255 1-320): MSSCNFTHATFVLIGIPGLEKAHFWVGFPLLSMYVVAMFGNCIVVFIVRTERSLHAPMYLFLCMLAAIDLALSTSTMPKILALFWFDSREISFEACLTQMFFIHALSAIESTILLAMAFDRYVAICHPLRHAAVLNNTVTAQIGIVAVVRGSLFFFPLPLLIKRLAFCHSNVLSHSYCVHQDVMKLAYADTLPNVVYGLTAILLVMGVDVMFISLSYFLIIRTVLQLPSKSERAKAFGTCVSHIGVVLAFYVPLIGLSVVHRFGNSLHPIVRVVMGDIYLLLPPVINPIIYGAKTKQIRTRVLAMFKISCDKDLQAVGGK
Procedure, shortened: as §2

Row | SMILES | log EC50, MOR138-1 [1] | log EC50, MOR139-1 [1] | log EC50, MOR189-1 [1] | log EC50, MOR272-1 [1] | log EC50, MOR273-1 [1] | other results
1 | CCC(C(=O)O)c1ccccc1 (single isomer, unassigned; (+)) [(+) enantiomer of 2-phenylbutyric acid, (+)-2-Phenylbutyric acid] | – | – | – | – | – | log EC50, MOR2-1 ([1]; receptor MOR2-1): −3.499; response of MOR2-1 (MOR2-1): responded more strongly
2 | CC(C)(O)CCCC1=CCC(C=O)CC1 (stereo not shown) [Lyral] | – | – | – | – | – | EC50 [2]: 55.6 µM; EC50 [3]: 324 µM
3 | CCC(=O)O [Propionic acid] | – | – | – | – | – | EC50 [4]: 109 µM

Further lines, with some results ahead:

Row | log EC50, MOR138-1 [1] | log EC50, MOR139-1 [1] | log EC50, MOR189-1 [1] | log EC50, MOR272-1 [1] | log EC50, MOR273-1 [1] | SMILES | other results
4 | −4.626 | −3.773 | −4.423 | −4.35 | −4.073 | CC1(C)C(=O)[C@@]2(C)CCC1C2 (single isomer, unassigned; (+)) [(+) enantiomer of fenchone, (+)-Fenchone] | log EC50, MOR271-1 ([1]; receptor MOR271-1): −4.859; activation of MOR271-1 (MOR271-1): only activated by the (+) enantiomer
5 | −4.481 | −3.879 | −4.239 | −3.558 | −5.231 | CC1(C)C(=O)[C@]2(C)CCC1C2 (single isomer, unassigned; (-)) [(−) enantiomer of fenchone, (−)-Fenchone] | log EC50, MOR107-1 ([1]; receptor MOR107-1): −4.302; activation of MOR107-1 (MOR107-1): activated only by the (−) enantiomer
